Test results: publication PMC10787358 (Science translational medicine, 2023)
“Also recorded” adds a separate entry of the source. Residues, ends and D or L forms follow the SMILES beside them. *: point of attachment. Cbz = O=C(OCc1ccccc1)*

Assays:
SARS-CoV PLpro = details: cited from earlier work
USP2 = USP2 (Homo sapiens, UniProt O75604); assay: In vitro USP2 activity assay; type: biochemical
SARS-CoV-2 PLpro [1] = assay: PLpro-dependent ACE2 deubiquitination and ACE2 abundance in cells; type: cell-based
ACE2 protein = assay: Immunoblot of ACE2 protein abundance in cell lines; type: cell-based, human; details: for reduction of ACE2 protein abundance: Calu-3, HepG2 and H1650 cells, 48 h
SARS-CoV-2 PLpro [2] = biological target: SARS-CoV-2 PLpro (Severe acute respiratory syndrome coronavirus 2, UniProt P0DTD1); assay: SARS-CoV-2 PLpro enzymatic activity assay; type: biochemical; details: in vitro
[3] = tested on: ACE2-dependent bat sarbecoviruses; type: cell-based
hCoV-OC43 [4] = assay: Cytopathic effect; type: cell-based; details: CPE assay, ACE2-independent strain
SARS-CoV-2 WT [5] = assay: TCID50 assay, authentic SARS-CoV-2 WT in pretreated Calu-3 cells; type: cell-based; details: Calu-3 cells pretreated 48 h, MOI 0.01, TCID50 over time
cyclin D1 / cell cycle = assay: TMT-based quantitative proteomic analysis and cell cycle analysis; parameters: species or system human
SARS-CoV-2 = type: in vivo, K18-hACE2 transgenic mice
SARS-CoV-2 WT [6] = type: in vivo, K18-hACE2 transgenic mice; details: 50 mg/kg daily
hCoV-NL63 = assay: Cytopathic effect; type: cell-based; details: CPE assay; for inhibition of hCoV-NL63 infection: ACE2-dependent coronavirus
C57BL/6 mice = assay: 2-week tolerability study in male C57BL/6 mice; type: in vivo, mouse
pseudotyped SARS-CoV-2 = type: cell-based; details: for pseudotype entry of SARS-CoV-2 after 48 h pretreatment: ML364 5 μM, UDCA plus ZGG 10 μM, Calu-3, HepG2, H1650
MERS-CoV pseudotype = type: cell-based
hCoV-OC43 [7] = assay: RT-qPCR of hCoV-OC43 in Huh7 cells; type: cell-based; details: Huh7 cells preinfected MOI 2 for 24 h, ML364 4 or 10 μM for 48 h
[8] = tested on: SARS-CoV-2 Omicron BA.2 sublineage; parameters: species or system K18-hACE2 transgenic mice; details: mouse, in vivo
SARS-CoV-2 WT [9] = assay: TCID50 assay, SARS-CoV-2 WT in NHBE cells; type: cell-based; details: preinfected MOI 0.01 for 1 h, 10 μM, 48 h
[10] = 50 mg/kg once a day or 35 mg/kg twice a day, 2 weeks

Sequence of USP2 (O75604 whole entry): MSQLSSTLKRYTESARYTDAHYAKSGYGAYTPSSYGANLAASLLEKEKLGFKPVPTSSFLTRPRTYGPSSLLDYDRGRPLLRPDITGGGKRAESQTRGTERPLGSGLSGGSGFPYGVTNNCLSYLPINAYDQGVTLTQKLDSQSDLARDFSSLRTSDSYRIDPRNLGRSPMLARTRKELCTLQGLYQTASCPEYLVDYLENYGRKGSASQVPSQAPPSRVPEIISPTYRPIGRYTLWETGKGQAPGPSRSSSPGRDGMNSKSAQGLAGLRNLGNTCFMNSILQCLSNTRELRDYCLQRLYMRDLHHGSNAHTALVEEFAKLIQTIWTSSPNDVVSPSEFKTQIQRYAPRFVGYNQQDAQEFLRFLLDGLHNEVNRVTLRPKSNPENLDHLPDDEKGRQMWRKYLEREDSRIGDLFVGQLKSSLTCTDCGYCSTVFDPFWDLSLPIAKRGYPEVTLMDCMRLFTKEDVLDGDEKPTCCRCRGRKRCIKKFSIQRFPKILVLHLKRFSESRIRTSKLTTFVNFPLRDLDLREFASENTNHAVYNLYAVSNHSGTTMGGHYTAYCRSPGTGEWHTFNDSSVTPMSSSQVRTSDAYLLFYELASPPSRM

## S=c1nc[nH]c2nc[nH]c12 [6MP]
SARS-CoV PLpro
  SARS-CoV PLpro protease activity: inhibit

## Nc1nc2[nH]cnc2c(=S)[nH]1 [6TG]
SARS-CoV PLpro
  SARS-CoV PLpro protease activity: inhibit

## Cc1ccc(N)cc1C(=O)N[C@H](C)c1cccc2ccccc12 [GRL0617]
USP2; even at 100 μM
  activity toward USP2: no obvious activity
SARS-CoV-2 PLpro [1]
  infection-induced reduction of ACE2: failed to prevent the infection-induced reduction of ACE2
SARS-CoV-2 PLpro [1]; in cells
  PLpro-induced ACE2 deubiquitination: diminished PLpro-induced ACE2 deubiquitination

## CC(C)C[C@@H](C=O)NC(=O)[C@H](CC(C)C)NC(=O)[C@H](CC(C)C)NC(=O)OCc1ccccc1 [MG132] (Cbz-Leu-Leu-Leu-aldehyde)
ACE2 protein; HepG2 cells with cycloheximide
  ACE2 protein accumulation: noticeable ACE2 protein accumulation

## Cc1ccc(S(=O)(=O)Nc2cc(C(F)(F)F)ccc2C(=O)Nc2nc(-c3ccccc3)cs2)cc1 [ML364]
SARS-CoV-2 PLpro [2]
  inhibition of SARS-CoV-2 PLpro: inhibitory effects
[3]
  pseudotype entry of ACE2-dependent bat sarbecoviruses: promising activity
Single intraperitoneal dose, male C57BL/6 mice
  time of peak plasma concentration: 30 min
hCoV-OC43 [4]
  inhibition of hCoV-OC43 infection: limited or no activity
USP2
  inhibition of USP2 activity: inhibited USP2 activity
SARS-CoV-2 WT [5]
  viral replication of SARS-CoV-2 WT: obvious reduction
ACE2 protein
  reduction of ACE2 protein abundance: reductions in ACE2 protein in all three cell lines
ACE2 protein; HepG2, 10 μM, within 12 hours of treatment
  ACE2 protein abundance decrease: 50%
HepG2 and Calu-3 cells
  cytotoxicity by LDH release: minimal cytotoxicity
Cyclin D1 / cell cycle
  cell cycle effect: primarily cell cycle arrest
Cyclin D1 / cell cycle; TMT-based proteomics
  cyclin D1 protein (TMT): significant (P = 3.3 × 10^−6) decrease
SARS-CoV-2; administration 6 hours after infection
  viral titers and SARS-CoV-2 E gene in lungs and small intestines: decrease in viral titers
SARS-CoV-2; administration 6 hours after infection, versus vehicle
  lung pathology: improved lung pathology
SARS-CoV-2 WT [6]
  ACE2 protein abundance in the lungs: significantly (P = 0.01) reduced
SARS-CoV-2 WT [6]; 4 days before 6-day challenge
  viral loads in the lungs: significant (P = 3.6 × 10^−6) decrease
SARS-CoV-2 WT [6]; versus vehicle
  lung pathology (H&E): reduction in overall lung pathology
hCoV-NL63
  inhibition of hCoV-NL63 infection: effective
hCoV-NL63; read-out: IC50 against hCoV-NL63
  IC50: ~180 nM
C57BL/6 mice; [10]
  clinical signs: healthy without any clinical signs
  plasma angiotensin-(1-7) concentration: did not lead to any noticeable reduction
C57BL/6 mice; pancreas, small intestine and lung of C57BL/6 mice
  ACE2 protein abundance in mouse tissues: reduced abundance of ACE2 protein
Pseudotyped SARS-CoV-2; HepG2, ML364 5 μM
  SARS-CoV-2 pseudovirus entry into cells: obvious reduction
Pseudotyped SARS-CoV-2
  pseudotype entry of SARS-CoV-2 after 48 h pretreatment: prevented the pseudotype entry
MERS-CoV pseudotype
  entry of MERS-CoV pseudotype: did not prevent the entry
hCoV-OC43 [7]
  activity against hCoV-OC43: did not observe any activity

## Cc1ccc(S(=O)(=O)Nc2ccc(C(F)(F)F)cc2C(=O)Nc2nc(-c3ccc(Br)cc3)cs2)cc1 [MS102]
[8]
  survival extension versus vehicle-treated control: 3 days
C57BL/6 mice
  peak plasma concentration relative to ML364: approximately threefold
  plasma concentration 24 hours after administration relative to ML364: approximately 2500 times
Male C57BL/6 mice, p.o. 50 mg/kg, i.v. 5 mg/kg
  oral bioavailability: ~100%
hCoV-OC43 [4]
  inhibition of hCoV-OC43 infection: limited or no activity
USP2
  inhibition of USP2 activity: slightly enhanced activity
HepG2 and Calu-3 cells
  cytotoxicity by LDH release: minimal cytotoxicity
SARS-CoV-2; mouse, in vivo
  therapeutic efficacy (TCID50, lung pathology) compared with ML364: enhanced efficacy compared with ML364
hCoV-NL63
  inhibition of hCoV-NL63 infection: effective
Pseudotyped SARS-CoV-2; HepG2, 5 μM, 24 h pretreatment
  entry of ACE2-dependent pseudotypes compared with ML364: enhanced activity
SARS-CoV-2 WT [9]
  blocking infection of NHBE cells compared with ML364: improved efficacy

## CC(O)c1cc(C(=O)N[C@@H](C)Cn2ccc(-c3ccc(C#N)c(Cl)c3)n2)[nH]n1 (some centres unmarked) [ODM-201]
ACE2 protein
  reduction of ACE2 protein abundance: mild efficacy

## C[C@H](CCC(=O)O)[C@H]1CC[C@H]2[C@@H]3[C@@H](O)C[C@@H]4C[C@H](O)CC[C@]4(C)[C@H]3CC[C@]12C [UDCA, ursodeoxycholic acid]
hCoV-OC43 [4]
  inhibition of hCoV-OC43 infection: no inhibitory activity
ACE2 protein
  reduction of ACE2 protein abundance: only mildly reduced ACE2 protein
hCoV-NL63
  inhibition of hCoV-NL63 infection: no inhibitory activity
Pseudotyped SARS-CoV-2
  pseudotype entry of SARS-CoV-2 after 48 h pretreatment: only showed mild effects; also recorded: mild effect

## C/C=C1\C(=O)C[C@H]2[C@@H]3CCC4=CC(=O)CC[C@]4(C)[C@H]3CC[C@]12C [ZGG, z-guggulsterone]
Pseudotyped SARS-CoV-2
  pseudotype entry of SARS-CoV-2 after 48 h pretreatment: only showed mild effects

## CCC(CC)COC(=O)[C@H](C)N[P@](=O)(OC[C@H]1O[C@@](C#N)(c2ccc3c(N)ncnn23)[C@H](O)[C@@H]1O)Oc1ccccc1 [remdesivir]
hCoV-OC43 [4]
  inhibition of hCoV-OC43 infection: active
hCoV-NL63
  inhibition of hCoV-NL63 infection: active
